Results published in patent US9718823B2, “2, 6-Di-nitrogen-containing substituted purine derivative, and preparation method, pharmaceutical composition and use thereof” (Zhejiang Medicine Co., Ltd. Xinchang Pharmaceutical Factory, priority 2013, dated 2017).

How the values were obtained:
Assay type in all cases: biochemical
PDGFR β enzyme = biological target: T1, PDGFR β enzyme (Homo sapiens, UniProt P09619); assay: Inhibitory activity to PDGFR β enzyme, HTRF kinEASE TK kit; details: read-out: Inhibition rate % (PDGFR β)
T1 construct: purchased Invitrogen P3082
Procedure: HTRF kinEASE TK (Cat.62TK0PEC, Cisbio)
PDGFR β enzyme (Cat.P3082, Invitrogen)
1 mL 1×Kinase Buffer includes 200 μL 5×Enzyme buffer, 5 μL 1M MgCl2, 1 μL 1M DTT, 1 μL 1M MnCl2, 20 μL 2500 nM SEB, 773 μL ddH2O.
TK-Substrate and ATP are diluted to 2.5 times of reaction concentration with 1×PDGFR β Kinase Buffer.
5×PDGFR β enzyme working solution is prepared with 1×PDGFR β kinase buffer.
4×Sa-XL665 working solution is prepared with Detection Buffer.
TK-Ab-Cryptate is diluted 100 times with Detection Buffer to use as working solution.

PI3K α = biological target: T2, PI3K α (Homo sapiens, UniProt P42336); assay: Inhibitory activity to PI3K α, PI 3-Kinase (human) HTRF Assay kit; details: read-out: % Inhibition Rate to PI3K α
T2 construct: purchased Millipore 14-602
Excerpt: (§1) Study on the inhibitory activity of the compounds of present invention to PI 3κα, PI3κδ and PI3κγ. Two or three concentrations of the compounds are selected to preliminary screening to calculate respectively the activity inhibition rate of the compounds of corresponding concentrations to enzyme, then the compounds with better activity are selected by preliminary screening for IC50 test.
(§2) PI 3-Kinase (human) HTRF™ Assay kit (Cat.33-017, Millipore)
PI 3k α (Cat.14-602, Millipore)
(§3) 4× Reaction Buffer (Cat.33-002, Millipore) is diluted with ddH2O to 1.33×, and 1M DTT is added to make the final concentration as 6.67 mM. For example, 10 μL DTT is added into 500 μL 4× Reaction Buffer, and water is added to 1.5 mL.
(§4) The Test compounds are dissolved with DMSO to 1 mM as storage liquid. 2 μL of each of storage liquid is added into 48 μL ddH2O, to obtain the 40 μM compounds solution containing 4% DMSO. After mixing, 3 μL of each of the solution is added into 27 μL 4% DMSO (in ddH2O) to obtain the 4 μM compounds solution. 5 μL of each dilute solution is added into 384-well plates, then the final concentration of the compounds in the 20 μL final kinase reaction system is 10 μM and 1 μM respectively contained 1% DMSO. The dilution methods of compounds are similar to the preliminary screening in IC50 test.
(§5) 2×PIP2 working fluid is prepared with 1.33× reaction buffer to the final concentration of 20 μM.
The screening concentration of PI 3k α kinase: 8 ng/well,
(§6) Kinase is diluted with 2×PIP2 operating fluid, the concentration of kinase operating fluid is 2 times of screening concentration.
(§7) 10 mM ATP is diluted with 1.33× reaction buffer to 400 μM. The concentration of ATP is 100 μM in 20 μL kinase reaction system.
(§8) Stop A and Stop B are mixed according to the proportion of 3:1, and are placed for 2 hours at room temperature to obtain the stop solution available.
(§9) DM C, DM A and DM B are mixed according to the proportion of 18:1:1, and are placed for 2 hours at room temperature to obtain the detection solution available.

PI3 K γ = biological target: T3, PI3 K γ (Homo sapiens, UniProt P48736); assay: Inhibitory activity to PI3K γ, PI 3-Kinase (human) HTRF Assay kit; details: read-out: Inhibition rate % to PI3 K γ
T3 construct: purchased Biology, Medicilon
Excerpt: as §1, §2
PI 3k γ (Biology, Medicilon)
as §3, §4, §5
The screening concentration of PI 3k γ kinase: 80 ng/well,
as §6, §7, §8, §9

PI3Kδ = biological target: T4, PI3Kδ (Homo sapiens, UniProt O00329); assay: Inhibitory activity to PI3K δ, PI 3-Kinase (human) HTRF Assay kit; details: read-out: Inhibition rate % to PI3Kδ; for inhibition at 1 µM: 1 μM (Table 7); for inhibition at 10 µM: 10 μM (Table 7)
T4 construct: purchased Millipore 14-604
Procedure: Study on the inhibitory activity of the compounds of present invention to PI 3κα, PI3κδ and PI3κγ.
as §2
For example, 10 μL DTT is added into 500 μL 4× Reaction Buffer, and water is added to 1.5 mL.
The Test compounds are dissolved with DMSO to 1 mM as storage liquid. 2 μL of each of storage liquid is added into 48 μL ddH2O, to obtain the 40 μM compounds solution containing 4% DMSO. After mixing, 3 μL of each of the solution is added into 27 μL 4% DMSO (in ddH2O) to obtain the 4 μM compounds solution. […]
The screening concentration of PI 3k δ kinase: 2 ng/well,
as §6
The concentration of ATP is 100 μM in 20 μL kinase reaction system.
as §8, §9

T4 sequence (O00329 whole entry): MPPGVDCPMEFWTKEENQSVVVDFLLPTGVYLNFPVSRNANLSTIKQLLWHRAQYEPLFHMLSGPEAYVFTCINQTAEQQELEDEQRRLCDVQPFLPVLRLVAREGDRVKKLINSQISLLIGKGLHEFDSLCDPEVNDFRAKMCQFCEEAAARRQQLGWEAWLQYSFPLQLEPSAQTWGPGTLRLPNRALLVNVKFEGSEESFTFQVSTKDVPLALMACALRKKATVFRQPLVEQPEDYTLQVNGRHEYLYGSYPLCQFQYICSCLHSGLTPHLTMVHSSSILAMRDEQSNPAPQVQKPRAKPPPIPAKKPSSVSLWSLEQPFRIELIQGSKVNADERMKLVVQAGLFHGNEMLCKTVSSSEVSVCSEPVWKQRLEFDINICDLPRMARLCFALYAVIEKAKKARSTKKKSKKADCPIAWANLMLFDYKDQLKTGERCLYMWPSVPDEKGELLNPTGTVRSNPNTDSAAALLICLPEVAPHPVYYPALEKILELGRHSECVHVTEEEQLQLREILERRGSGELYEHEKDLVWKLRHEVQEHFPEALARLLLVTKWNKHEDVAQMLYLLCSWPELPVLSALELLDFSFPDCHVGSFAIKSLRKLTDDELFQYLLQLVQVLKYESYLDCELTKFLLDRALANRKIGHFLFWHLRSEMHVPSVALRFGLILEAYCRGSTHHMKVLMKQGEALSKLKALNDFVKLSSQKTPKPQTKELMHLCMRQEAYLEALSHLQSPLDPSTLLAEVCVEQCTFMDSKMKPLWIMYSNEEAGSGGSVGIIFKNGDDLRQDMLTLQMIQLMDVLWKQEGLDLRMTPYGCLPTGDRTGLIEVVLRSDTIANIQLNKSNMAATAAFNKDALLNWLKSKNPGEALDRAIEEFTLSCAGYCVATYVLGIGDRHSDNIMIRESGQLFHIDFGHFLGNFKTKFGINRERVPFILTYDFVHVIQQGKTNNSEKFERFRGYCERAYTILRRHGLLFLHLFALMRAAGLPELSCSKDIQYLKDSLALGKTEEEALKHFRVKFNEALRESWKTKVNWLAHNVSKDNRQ
T4 sequence (P27986 whole entry partner): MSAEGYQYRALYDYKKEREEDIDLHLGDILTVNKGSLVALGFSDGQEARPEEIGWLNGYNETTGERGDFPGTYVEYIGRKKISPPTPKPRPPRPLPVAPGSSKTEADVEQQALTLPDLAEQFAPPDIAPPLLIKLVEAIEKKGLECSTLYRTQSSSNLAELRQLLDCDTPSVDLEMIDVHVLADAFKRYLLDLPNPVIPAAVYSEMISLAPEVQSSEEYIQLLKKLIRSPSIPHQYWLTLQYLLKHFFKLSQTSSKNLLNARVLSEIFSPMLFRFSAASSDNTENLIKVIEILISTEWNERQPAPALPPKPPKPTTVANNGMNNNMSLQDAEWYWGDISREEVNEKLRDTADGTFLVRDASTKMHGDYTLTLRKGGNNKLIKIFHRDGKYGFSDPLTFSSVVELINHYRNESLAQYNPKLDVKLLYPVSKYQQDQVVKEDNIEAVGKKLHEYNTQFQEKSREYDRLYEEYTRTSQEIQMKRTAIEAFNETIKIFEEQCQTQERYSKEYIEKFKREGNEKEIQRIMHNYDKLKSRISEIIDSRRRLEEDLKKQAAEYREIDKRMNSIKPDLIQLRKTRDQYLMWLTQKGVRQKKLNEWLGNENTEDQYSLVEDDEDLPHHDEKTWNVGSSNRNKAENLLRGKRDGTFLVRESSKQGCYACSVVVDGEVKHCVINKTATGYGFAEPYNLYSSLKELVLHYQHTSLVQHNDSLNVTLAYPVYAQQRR
T2 sequence (P42336 whole entry): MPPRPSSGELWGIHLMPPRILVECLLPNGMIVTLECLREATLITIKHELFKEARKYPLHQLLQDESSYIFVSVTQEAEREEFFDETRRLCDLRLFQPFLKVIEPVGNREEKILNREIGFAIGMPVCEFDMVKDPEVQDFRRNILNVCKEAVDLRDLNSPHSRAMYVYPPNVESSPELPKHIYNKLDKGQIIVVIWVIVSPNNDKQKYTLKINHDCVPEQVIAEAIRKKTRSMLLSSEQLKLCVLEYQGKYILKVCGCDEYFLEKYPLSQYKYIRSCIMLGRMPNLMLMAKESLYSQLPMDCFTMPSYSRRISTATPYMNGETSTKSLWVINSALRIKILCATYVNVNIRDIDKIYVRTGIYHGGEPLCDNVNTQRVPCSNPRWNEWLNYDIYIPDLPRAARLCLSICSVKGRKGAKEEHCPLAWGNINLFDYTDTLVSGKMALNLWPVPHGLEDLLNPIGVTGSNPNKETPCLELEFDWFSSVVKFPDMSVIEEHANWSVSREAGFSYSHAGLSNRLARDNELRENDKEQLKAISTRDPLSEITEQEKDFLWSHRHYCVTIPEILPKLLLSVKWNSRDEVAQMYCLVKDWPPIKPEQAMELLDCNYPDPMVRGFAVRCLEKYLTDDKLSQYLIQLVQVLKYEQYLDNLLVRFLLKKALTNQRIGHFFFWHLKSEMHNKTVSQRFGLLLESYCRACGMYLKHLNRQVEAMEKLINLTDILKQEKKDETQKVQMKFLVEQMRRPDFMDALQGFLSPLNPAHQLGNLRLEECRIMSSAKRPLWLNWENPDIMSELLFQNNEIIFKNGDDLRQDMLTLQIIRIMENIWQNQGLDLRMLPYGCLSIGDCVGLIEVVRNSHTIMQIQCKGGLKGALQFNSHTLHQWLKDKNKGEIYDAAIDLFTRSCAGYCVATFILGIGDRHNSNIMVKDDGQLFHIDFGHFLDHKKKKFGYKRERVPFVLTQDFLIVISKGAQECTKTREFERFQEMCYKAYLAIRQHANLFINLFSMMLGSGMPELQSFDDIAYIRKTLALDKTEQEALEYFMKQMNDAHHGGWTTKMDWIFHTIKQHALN
T2 sequence (P27986 whole entry partner): as the sequence (P27986 whole entry partner) above
T3 sequence (P48736 whole entry): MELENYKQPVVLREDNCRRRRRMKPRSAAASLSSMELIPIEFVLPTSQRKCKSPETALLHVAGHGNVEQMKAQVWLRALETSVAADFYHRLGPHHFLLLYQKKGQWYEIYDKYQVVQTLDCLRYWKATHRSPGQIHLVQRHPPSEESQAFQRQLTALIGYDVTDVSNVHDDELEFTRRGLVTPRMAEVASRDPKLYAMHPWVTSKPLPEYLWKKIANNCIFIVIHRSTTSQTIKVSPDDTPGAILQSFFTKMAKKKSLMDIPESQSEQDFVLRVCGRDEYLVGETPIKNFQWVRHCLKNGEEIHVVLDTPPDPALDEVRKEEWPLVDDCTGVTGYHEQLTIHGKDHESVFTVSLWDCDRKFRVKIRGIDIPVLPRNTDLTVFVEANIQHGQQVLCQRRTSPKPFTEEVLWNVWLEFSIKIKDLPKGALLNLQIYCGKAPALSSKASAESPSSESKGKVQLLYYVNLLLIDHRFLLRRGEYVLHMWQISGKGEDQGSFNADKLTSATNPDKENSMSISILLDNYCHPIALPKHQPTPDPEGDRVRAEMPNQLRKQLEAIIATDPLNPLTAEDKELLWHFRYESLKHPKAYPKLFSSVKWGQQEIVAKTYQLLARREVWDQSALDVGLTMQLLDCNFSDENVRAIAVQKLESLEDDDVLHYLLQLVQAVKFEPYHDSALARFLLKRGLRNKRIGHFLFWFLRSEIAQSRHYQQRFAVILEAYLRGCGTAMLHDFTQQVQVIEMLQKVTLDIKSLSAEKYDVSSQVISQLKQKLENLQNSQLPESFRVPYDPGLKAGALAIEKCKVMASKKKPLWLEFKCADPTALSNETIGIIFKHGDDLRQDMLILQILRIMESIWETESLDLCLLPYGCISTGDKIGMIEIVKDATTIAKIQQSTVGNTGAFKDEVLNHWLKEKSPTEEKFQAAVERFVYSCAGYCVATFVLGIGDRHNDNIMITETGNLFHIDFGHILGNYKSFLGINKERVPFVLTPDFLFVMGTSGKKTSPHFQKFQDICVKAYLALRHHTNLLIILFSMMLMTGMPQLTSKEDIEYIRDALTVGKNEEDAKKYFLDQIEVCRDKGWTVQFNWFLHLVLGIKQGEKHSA
T1 sequence (P09619 33-1106): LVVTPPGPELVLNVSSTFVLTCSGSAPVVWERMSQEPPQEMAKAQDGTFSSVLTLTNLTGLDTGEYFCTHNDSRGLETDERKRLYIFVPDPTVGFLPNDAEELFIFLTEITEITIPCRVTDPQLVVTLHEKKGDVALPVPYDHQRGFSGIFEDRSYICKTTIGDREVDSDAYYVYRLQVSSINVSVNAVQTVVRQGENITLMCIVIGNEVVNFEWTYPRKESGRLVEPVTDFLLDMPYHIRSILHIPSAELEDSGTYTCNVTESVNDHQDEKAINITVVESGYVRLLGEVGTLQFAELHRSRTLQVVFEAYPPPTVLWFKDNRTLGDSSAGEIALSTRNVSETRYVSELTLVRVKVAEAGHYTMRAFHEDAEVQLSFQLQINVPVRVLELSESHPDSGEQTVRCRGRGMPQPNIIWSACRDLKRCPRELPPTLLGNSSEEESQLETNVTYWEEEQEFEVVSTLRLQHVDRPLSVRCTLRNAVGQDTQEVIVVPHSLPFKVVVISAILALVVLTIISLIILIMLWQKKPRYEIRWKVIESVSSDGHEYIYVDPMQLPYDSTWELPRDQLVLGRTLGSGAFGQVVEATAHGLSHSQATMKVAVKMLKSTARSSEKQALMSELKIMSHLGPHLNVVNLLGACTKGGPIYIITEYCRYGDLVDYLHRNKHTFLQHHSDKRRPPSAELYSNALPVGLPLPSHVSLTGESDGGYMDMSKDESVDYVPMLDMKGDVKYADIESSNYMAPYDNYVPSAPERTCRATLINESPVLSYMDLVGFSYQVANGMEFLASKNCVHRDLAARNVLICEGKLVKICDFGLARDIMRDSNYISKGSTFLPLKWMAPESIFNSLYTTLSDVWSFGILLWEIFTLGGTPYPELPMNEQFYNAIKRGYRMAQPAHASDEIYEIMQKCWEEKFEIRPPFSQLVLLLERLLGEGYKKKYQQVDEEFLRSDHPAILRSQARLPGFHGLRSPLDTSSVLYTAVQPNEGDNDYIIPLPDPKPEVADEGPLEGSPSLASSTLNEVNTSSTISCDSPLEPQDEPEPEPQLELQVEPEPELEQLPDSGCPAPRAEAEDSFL

| Compound | inhibition at 1 µM (PDGFR β enzyme) [%] | inhibition at 10 µM (PDGFR β enzyme) [%] | inhibition at 1 µM (PI3K α) [%] | inhibition at 10 µM (PI3K α) [%] | inhibition at 1 µM (PI3 K γ) [%] | inhibition at 10 µM (PI3 K γ) [%] | inhibition at 1 µM (PI3Kδ) [%] | inhibition at 10 µM (PI3Kδ) [%] |
| --- | --- | --- | --- | --- | --- | --- | --- | --- |
| NCCNc1nc(Nc2ccc3nccc(-c4ccccc4)c3c2)nc2[nH]cnc12 [MED1007-70, N6-(2-aminoethyl 1)-N2-(4-phenylquinoline-6-yl)-9H-purine-2,6-diamine] | 33.4 | 73 | 26.6 | 62.5 | 5.26 | 10.8 | 41 | 51.6 |
| c1ccc(-c2ccnc3ccc(Nc4nc(NC5CCCC5)c5nc[nH]c5n4)cc23)cc1 [MED1007-106, N6-cyclopentyl-N2-(4-phenylquinoline-6-yl)-9H-purine-2,6-diamine] | – | – | 24.4 | 97.4 | – | – | 32.9 | 89.1 |
| CSc1cccc(-c2ccnc3ccc(Nc4nc(NC5CC5)c5nc[nH]c5n4)cc23)c1 [MED1007-88, N6-cyclopropyl-N2-(4-(3-(methylthio)phenyl)quinoline-6-yl)-9H-purine-2,6-diamine] | -5.37 | 2.89 | 46.2 | 110 | 7.02 | 41.5 | 31 | 103 |
| c1ccc(-c2ccnc3ccc(Nc4nc(NCC5CCCC5)c5nc[nH]c5n4)cc23)cc1 [MED1007-99, N6-(cyclopentylmethyl)-N2-(4-phenylquinoline-6-yl)-9H-purine-2,6-diamine] | 33.1 | 9.88 | 23.3 | 88.3 | 4.68 | 39.9 | 7.67 | 88.1 |
| OCCNc1nc(Nc2ccc3nccc(-c4ccccc4)c3c2)nc2[nH]cnc12 [MED1007-69, 2-(2-(4-phenylquinoline-6-ylamino)-9H-purine-6-ylamino) ethanol] | 11.7 | 31.8 | 38.8 | 78.2 | 1.27 | 21.1 | 28.9 | 36.4 |
| COc1ccc(-c2ccnc3ccc(Nc4nc(NC5CC5)c5nc[nH]c5n4)cc23)cc1OC [MED1007-84, N6-cyclopropyl-N2-(4-(3,4-dimethoxyphenyl)quinoline-6-yl)-9H-purine-2,6-diamine] | -8.59 | 13.4 | 58.7 | 99.2 | 26.6 | 34.2 | 71.8 | 101 |
| CSc1ccccc1-c1ccnc2ccc(Nc3nc(NC4CC4)c4nc[nH]c4n3)cc12 [MED1007-87, N6-cyclopropyl-N2-(4-(2-(methylthio)phenyl)quinoline-6-yl)-9H-purine-2,6-diamine] | -7.6 | -4.13 | 13.8 | 60.6 | -3.76 | 29.5 | 23 | 80 |
| c1cc(-c2ccc3c(c2)OCO3)c2cc(Nc3nc(NC4CC4)c4nc[nH]c4n3)ccc2n1 [MED1007-85, N2-(4-(benzo[1,3]-dioxole-5-yl)quinoline-6-yl)-N6-cyclopropane-9H-purine-2,6-diamine] | -3.44 | 29.8 | 66.2 | 90.1 | 16.8 | 41.9 | 54.1 | 113 |
| COc1cccc(-c2ccnc3ccc(Nc4nc(NC5CCC5)c5nc[nH]c5n4)cc23)c1 [MED1007-71, N6-cyclobutyl-N2-(4-(3-methoxyphenyl)quinoline-6-yl)-9H-purine-2,6-diamine] | 9.74 | 4.5 | 10.4 | 75 | 2.55 | 47.4 | 24.4 | 64.4 |
| FC(F)(F)Cn1cnc2c(NC3CC3)nc(Nc3ccc4nccc(-c5ccccc5)c4c3)nc21 [MED1007-65, N6-cyclopropyl-N2-(4-phenylquinoline-6-yl)-9-(2,2,2-trifluoroethyl)-9H-purine-2,6-diamine] | 21.5 | 14 | 0.69 | 10.2 | 1.54 | 37.2 | 7.48 | 38.4 |
| Fc1ccc(-c2ccnc3ccc(Nc4nc(NC5CCC5)c5nc[nH]c5n4)cc23)cc1 [MED1007-72, N6-cyclobutyl-N2-(4-(4-fluorophenyl)quinoline-6-yl)-9H-purine-2,6-diamine] | 7.25 | 2.5 | 8.78 | 65.9 | 2.15 | 42.7 | 33.9 | 89.5 |
| CCOc1cccc(-c2ccnc3ccc(Nc4nc(NC5CC5)c5nc[nH]c5n4)cc23)c1 [MED1007-83, N6-cyclopropyl-N2-(4-(3-ethoxyphenyl)quinoline-6-yl)-9H-purine-2,6-diamine] | 4.5 | 7.6 | 36.2 | 87.6 | 5.93 | 24 | 22.7 | 68.5 |
| OCCCNc1nc(Nc2ccc3nccc(-c4ccccc4)c3c2)nc2[nH]cnc12 [MED1007-73, 3-(2-(4-phenylquinoline-6-ylamino)-9H-purine-6-ylamino) propyl-1-ol] | 17 | 35 | 29.7 | 66.1 | 5.49 | 28.4 | 6.41 | 66.5 |
| c1cnc2ccc(Nc3nc(OC4CCC4)c4nc[nH]c4n3)cc2c1 [MED1007-97] | 98.4 | 99.5 | 56.3 | 114 | 74.7 | 77 | 72.3 | 88.5 |
| c1ccc(-c2ccnc3ccc(Nc4nc(OC5CCCCC5)c5nc[nH]c5n4)cc23)cc1 [MED1007-107, N-(6-cyclohexyloxy-9H-purine-2-yl)-4-phenyl quinoline-6-amine] | – | – | 29.9 | 65.8 | – | – | 29.3 | 119 |
| COC(=O)c1cccc(-c2ccnc3ccc(Nc4nc(NC5CC5)c5nc[nH]c5n4)cc23)c1 [MED1007-60, 4-(6-(6-(cyclopropylamino)-9H-purine-2-ylamino)quinoline-4-yl) m-methyl benzoate] | -0.63 | 10.6 | – | – | -2.59 | 4.45 | -2.33 | 34.1 |
